Measured values from patent US9169254B2, “Spiroimidazolone derivative” (Chugai Seiyaku Kabushiki Kaisha, priority 2009, dated 2015).
Counter-ions that a name gives are not always drawn.

Molecular target: T1, human PTH1 receptor (Homo sapiens, UniProt Q03431)
T1 sequence (Q03431 27-593): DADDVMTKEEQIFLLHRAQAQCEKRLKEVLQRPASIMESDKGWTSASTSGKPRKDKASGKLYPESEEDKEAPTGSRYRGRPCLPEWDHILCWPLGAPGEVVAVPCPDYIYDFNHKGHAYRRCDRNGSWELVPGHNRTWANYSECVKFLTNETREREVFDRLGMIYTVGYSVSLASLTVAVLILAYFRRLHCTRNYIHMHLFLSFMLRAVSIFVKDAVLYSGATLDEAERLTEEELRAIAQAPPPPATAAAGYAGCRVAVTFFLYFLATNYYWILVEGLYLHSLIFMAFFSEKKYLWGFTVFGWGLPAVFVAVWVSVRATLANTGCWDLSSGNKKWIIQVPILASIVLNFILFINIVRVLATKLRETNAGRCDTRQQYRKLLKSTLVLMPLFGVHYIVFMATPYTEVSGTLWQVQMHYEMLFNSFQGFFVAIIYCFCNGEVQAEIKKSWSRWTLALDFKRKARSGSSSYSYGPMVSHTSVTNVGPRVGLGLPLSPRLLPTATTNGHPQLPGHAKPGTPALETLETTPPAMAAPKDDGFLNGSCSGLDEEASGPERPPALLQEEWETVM
Assay: In vitro cAMP signal activity in HKRK-B7 cells (LLC-PK1 cells overexpressing the human PTH1 receptor)
Assay type: cell-based
Conditions: HKRK-B7 cells; compound at 1×10^−3 M; cAMP produced as percentage of that produced by hPTH(1-34) at 100 nM

Compound | cAMP production activity (%)
Cc1cc(N(CCOCCO)C(N)=O)cc(C)c1CCS(=O)(=O)N1CCC2(CC1)N=C(C1CCC(CCC(F)(F)F)CC1)NC2=O (stereo not drawn) [Compound 826, 1-[3,5-dimethyl-4-(2-{4-oxo-2-[4-(3,3,3-trifluoro-propyl)-cyclohexyl]-1,3,8-triaza-spiro[4.5]dec-1-ene-8-sulfonyl}-ethyl)-phenyl]-1-[2-(2-hydroxy-ethoxy)-ethyl]-urea] | 90
Cc1cc(CN2C(=O)NC(C)(C)C2=O)cc(C)c1CCS(=O)(=O)N1CCC2(CC1)N=C(C1CCC(CCC(F)(F)F)CC1)NC2=O (stereo not drawn) [Compound 775, 3-[3,5-dimethyl-4-(2-{4-oxo-2-[4-(3,3,3-trifluoro-propyl)-cyclohexyl]-1,3,8-triaza-spiro[4.5]dec-1-ene-8-sulfonyl}-ethyl)-benzyl]-5,5-dimethyl-imidazolidine-2,4-dione] | 70
O=C(Nc1ccncc1)c1cccc(CCS(=O)(=O)N2CCC3(CC2)N=C(C2CCCCC2)NC3=O)c1 [Compound 422, 3-[2-(2-cyclohexyl-4-oxo-1,3,8-triaza-spiro[4.5]dec-1-ene-8-sulfonyl)-ethyl]-N-pyridin-4-yl-benzamide] | 14
C/C=C/C1=NC2(CCN(S(=O)(=O)CCc3ccc(C(=O)N(C)C)cc3C)CC2)C(=O)N1 [Compound 141, 3,N,N-trimethyl-4-{2-[4-oxo-2-((E)-propenyl)-1,3,8-triaza-spiro[4.5]dec-1-ene-8-sulfonyl]-ethyl}-benzamide] | 32
O=C(c1ccc(Cl)cc1)N1CCCC(C2=NC3(CCN(S(=O)(=O)c4cccc(Cl)c4)CC3)C(=O)N2)C1 (stereo not drawn) [Compound 425, 8-(3-Chloro-benzenesulfonyl)-2-[1-(4-chloro-benzoyl)-piperidin-3-yl]-1,3,8-triaza-spiro[4.5]dec-1-en-4-one] | 17
CC(=O)N(CCOCCO)c1ccc(CCS(=O)(=O)N2CCC3(CC2)N=C(C2CCC(CCC(F)(F)F)CC2)NC3=O)c(C)c1 (stereo not drawn) [Compound 758, N-[2-(2-hydroxy-ethoxy)-ethyl]-N-[3-methyl-4-(2-{4-oxo-2-[4-(3,3,3-trifluoro-propyl)-cyclohexyl]-1,3,8-triaza-spiro[4.5]dec-1-ene-8-sulfonyl}-ethyl)-phenyl]-acetamide] | 98
COC(=O)c1ccccc1S(=O)(=O)N1CCC2(CC1)N=C(C1CCCCC1)NC2=O [Compound 51, 2-(2-Cyclohexyl-4-oxo-1,3,8-triaza-spiro[4.5]dec-1-ene-8-sulfonyl)-benzoic acid methyl ester] | 38
Cc1cc(CN2C(=O)CNC2=O)cc(C)c1/C=C/S(=O)(=O)N1CCC2(CC1)N=C(C1CCC(CCC(F)(F)F)CC1)NC2=O (stereo not drawn) [Compound 554, 3-[3,5-dimethyl-4-((E)-2-{4-oxo-2-[4-(3,3,3-trifluoro-propyl)-cyclohexyl]-1,3,8-triaza-spiro[4.5]dec-1-ene-8-sulfonyl}-vinyl)-benzyl]-imidazolidine-2,4-dione] | 82
Cc1cc(N2C(=O)CC[C@@H]2CNC(C)C)cc(C)c1/C=C/S(=O)(=O)N1CCC2(CC1)N=C(c1cccc(OC(F)(F)F)c1)NC2=O [Compound 606, 8-((E)-2-{4-[(R)-2-(isopropylamino-methyl)-5-oxo-pyrrolidin-1-yl]-2,6-dimethyl-phenyl}-ethenesulfonyl)-2-(3-trifluoromethoxy-phenyl)-1,3,8-triaza-spiro[4.5]dec-1-en-4-one] | 28
Cc1cc(N2C(=O)N(C)C(C)(C)C2=O)cc(C)c1/C=C/S(=O)(=O)N1CCC2(CC1)N=C(c1cccc(OC(F)(F)F)c1)NC2=O [Compound 614, 3-(3,5-dimethyl-4-{(E)-2-[4-oxo-2-(3-trifluoromethoxy-phenyl)-1,3,8-triaza-spiro[4.5]dec-1-ene-8-sulfonyl]-vinyl}-phenyl)-1,5,5-trimethyl-imidazolidine-2,4-dione] | 25
Cc1cc(C(=O)N2CC(F)C2)ccc1CCS(=O)(=O)N1CCC2(CC1)N=C(c1cccc(C(F)(F)F)c1)NC2=O [Compound 379, 8-{2-[4-(3-fluoro-azetidine-1-carbonyl)-2-methyl-phenyl]-ethanesulfonyl}-2-(3-trifluoromethyl-phenyl)-1,3,8-triaza-spiro[4.5]dec-1-en-4-one] | 59
CC(=O)OC[C@H](CN(C(C)=O)c1ccc(CCS(=O)(=O)N2CCC3(CC2)N=C(c2ccc(OC(F)(F)F)cc2)NC3=O)c(C)c1)OC(C)=O [Compound 152, acetic acid (S)-1-acetoxymethyl-2-[acetyl-(3-methyl-4-{2-[4-oxo-2-(4-trifluoromethoxy-phenyl)-1,3,8-triaza-spiro[4.5]dec-1-ene-8-sulfonyl]-ethyl}-phenyl)-amino]-ethyl ester] | 47
Cc1cc(N(C)C(N)=O)cc(C)c1CCS(=O)(=O)N1CCC2(CC1)N=C(CCCCCCCCC(F)(F)F)NC2=O [Compound 1046, 1-(3,5-dimethyl-4-{2-[4-oxo-2-(9,9,9-trifluoro-nonyl)-1,3,8-triaza-spiro[4.5]dec-1-ene-8-sulfonyl]-ethyl}-phenyl)-1-methyl-urea] | 101
CS(=O)(=O)n1ccc2c(CCS(=O)(=O)N3CCC4(CC3)N=C(C3CCCCC3)NC4=O)cccc21 [Compound 312, 2-cyclohexyl-8-[2-(1-methanesulfonyl-1H-indol-4-yl)-ethanesulfonyl]-1,3,8-triaza-spiro[4.5]dec-1-en-4-one] | 49
Cc1cc(N(C)C(N)=O)cc(C)c1/C=C/S(=O)(=O)N1CCC2(CC1)N=C(CCCCCCCCCCCO)NC2=O [Compound 1307, 1-(4-{(E)-2-[2-(11-hydroxy-undecyl)-4-oxo-1,3,8-triaza-spiro[4.5]dec-1-ene-8-sulfonyl]-vinyl}-3,5-dimethyl-phenyl)-1-methyl-urea] | 116
[2H]C([2H])([2H])C([2H])([2H])C1=CC[C@H](C2=NC3(CCN([S@TB18](=O)(=O)CCc4c(C)cc(N(C)C(N)=O)cc4C)CC3)C(=O)N2)CC1 [Compound 1149, 1-(4-{2-[2-(4-[1,1,2,2,2-^2H5]ethyl-cyclohex-3-enyl)-4-oxo-1,3,8-triaza-spiro[4.5]dec-1-ene-8-sulfonyl]-ethyl}-3,5-dimethyl-phenyl)-1-methyl-urea] | 98
Cc1cc(N(C)C(N)=O)cc(C)c1CCS(=O)(=O)N1CCC2(CC1)N=C(C1CCC3(CC1)CC3)NC2=O [Compound 1058, 1-{3,5-dimethyl-4-[2-(4-oxo-2-spiro[2.5]oct-6-yl-1,3,8-triaza-spiro[4.5]dec-1-ene-8-sulfonyl)-ethyl]-phenyl}-1-methyl-urea] | 133
Cc1cc(C(=O)N2CCN(CCOCCO)CC2)ccc1CCS(=O)(=O)N1CCC2(CC1)N=C(c1cccc(C(F)(F)F)c1)NC2=O [Compound 362, 8-[2-(4-{4-[2-(2-hydroxy-ethoxy)-ethyl]-piperazine-1-carbonyl}-2-methyl-phenyl)-ethanesulfonyl]-2-(3-trifluoromethyl-phenyl)-1,3,8-triaza-spiro[4.5]dec-1-en-4-one] | 97
CC(=O)N(CCO)c1ccc(C)c(CCS(=O)(=O)N2CCC3(CC2)N=C(c2cccc(OC(F)(F)F)c2)NC3=O)c1 [Compound 326, N-(2-Hydroxy-ethyl)-N-(4-methyl-3-{2-[4-oxo-2-(3-trifluoromethoxy-phenyl)-1,3,8-triaza-spiro[4.5]dec-1-ene-8-sulfonyl]-ethyl}-phenyl)-acetamide] | 76
CNc1cc(C)c(CCS(=O)(=O)N2CCC3(CC2)N=C(C2CCC(=C(C)C)CC2)NC3=O)c(C)c1 (stereo not drawn) [Compound 1037, 8-[2-(2,6-Dimethyl-4-methylamino-phenyl)-ethanesulfonyl]-2-(4-isopropylidene-cyclohexyl)-1,3,8-triaza-spiro[4.5]dec-1-en-4-one] | 87
CNc1cc(C)c(CCS(=O)(=O)N2CCC3(CC2)N=C(C2CCCN2)NC3=O)c(C)c1 (stereo not drawn) [Compound 1286, 8-[2-(2,6-Dimethyl-4-methylamino-phenyl)-ethanesulfonyl]-2-pyrrolidin-2-yl-1,3,8-triaza-spiro[4.5]dec-1-en-4-one dihydrochloride] | 35
O=C(c1ccc2ncccc2c1)N1CCCC(C2=NC3(CCN(S(=O)(=O)CCc4cccc5ccccc45)CC3)C(=O)N2)C1 (stereo not drawn) [Compound 431, 8-(2-naphthalen-1-yl-ethanesulfonyl)-2-[1-(quinoline-6-carbonyl)-piperidin-3-yl]-1,3,8-triaza-spiro[4.5]dec-1-en-4-one] | 14
Cc1cc(C(=O)N(C)C)ccc1CCS(=O)(=O)N1CCC2(CC1)N=C(N(C)Cc1ccccc1)NC2=O [Compound 1398, 4-{2-[2-(benzyl-methyl-amino)-4-oxo-1,3,8-triaza-spiro[4.5]dec-1-ene-8-sulfonyl]-ethyl}-3,N,N-trimethyl-benzamide] | 77
CC(C)COC(=O)N1CCCC(C2=NC3(CCN(S(=O)(=O)c4cccc(Cl)c4)CC3)C(=O)N2)C1 (stereo not drawn) [Compound 462, 3-[8-(3-chloro-benzenesulfonyl)-4-oxo-1,3,8-triaza-spiro[4.5]dec-1-en-2-yl]-piperidine-1-carboxylic acid isobutyl ester] | 47
